Measurements published in US20110152207A1, “USE OF VITAMIN D GLYCOSIDES AND SULFATES FOR TREATMENT OF DISEASE” (priority 2009, published 2011).
Marks after values point to notes of the source that are not given here.

How the values were obtained:
Cyp24 [1] = experiment: Cyp24 mRNA expression in colon of mice after a single oral dose; assay type: in vivo; settings: 6 hrs; for increase in Cyp24 expression in the colon: relative to untreated mice
Method: (§1) Mice were decapitated 6 hrs later following light anesthesia under inhaled halothane. […] Tissue samples were flushed with ice-cold phosphate-buffered saline and immediately homogenized in 1 ml of TRIzol® reagent (Invitrogen Corp., Carlsbad, Calif.). Samples were then kept frozen at −86° C. prior to processing for RNA. For processing RNA, each TRIzol® homogenate was thawed at room temperature and 500 μl placed in a clean microfuge tube, mixed thoroughly with 100 μl chloroform for 15 sec and then centrifuged at 12,000×g for 15 min at 4° C. The upper aqueous phase was removed and mixed with 0.93 volumes of 75% EtOH. The mixture was then applied to an RNeasy spin column (Qiagen Inc., Germantown, Md.) and processed as described by the manufacturer with the exception that an additional wash with 2M NaCl/2 mM EDTA (pH 4.0) was included (Das et al. J Vet Diagn Invest. 2009; 21:771-778). RNA was eluted in 50 μl of water and the concentration obtained by UV spectrometry. One microgram of RNA was then used as a template for production of cDNA in a 20-μl reaction volume using random hexamers and Superscript III as described by the manufacturer (Invitrogen, Carlsbad, Calif.). Afterwards, samples were diluted to 100 μl final volume with TE buffer and stored at −20° C. prior to PCR analysis. Quantitative real-time RT-PCR was performed using a Stratagene Mx3005p cycler (Stratagene, La Jolla, Calif.) and PerfeCTa® SYBR® Green FastMix®, ROX reagent (Quanta Biosciences, Gaithersburg, Md.). Amplification of target cDNAs was accomplished with the following primers: Aliquots (8.3 ng) of cDNA were amplified under the following conditions: 95° C. for 30 sec, followed by 45 cycles of 95° C. for 1 sec and 57° C. for 30 sec. […] Oligonucleotides were obtained from Integrated DNA Technologies (Coralville, Iowa).

[2] = test system: DSS-induced inflammation of the lower colon; experiment: Dextran sodium sulfate (DSS) mouse model of IBD; assay type: in vivo; settings: DSS mice; for Fecal Blood Score: scale 0-3
Excerpt: (§2) In this example, β-gluc-1,25-D3 compounds, alone or in combination with 25-β-glucuronide-25-hydroxyvitamin D3 compounds (hereinafter β-gluc-25-D3) were incorporated into the diet of mice and compared to equimolar 1,25-D3 with respect to therapeutic effects on IBD and induction of calcemia. A standard mouse model of IBD comprising administering dextran sodium sulfate (DSS) to induce inflammation of the lower colon was used to study these effects. Vitamin D treatments were first initiated for 4 days. After 4 days, mice were fed DSS-water for 7 days, allowed one day to recover, and sacrificed. Colon length, plasma calcium, fecal blood score, and body weight were assayed. Colon length is a standard marker of intestinal inflammation in the literature, with shortened colon length being an indicator of inflammation. A 1-cm section of the mid-colon was removed, fixed in formalin, and stained with hematoxylin & eosin for microscopic histopathologic evaluation by a veterinary pathologist blinded to the treatments. Each tissue section received a score from 0 to 4 reflecting absence of lesion to severe, extensive lesion for each of three criteria: (1) the degree of erosion/ulceration of colon mucosa; (2) the degree of infiltration of the tissues by inflammatory cells; and (3) the degree of submucosal edema. The sum of the score of each of these criteria constitutes the histopathological score for the tissue with a zero score representing normal tissue based on all criteria, and the worst possible outcome being a score of 12.

DU-145 cells = experiment: DU-145 cell proliferation (CELLTITER BLUE); assay type: cell-based, human; settings: for Proliferation index (Mean ± SEM): 4 days, control = 100
Method: LNCaP cells (ATCC # CRL-1740) are malignant prostate cancer cells originally obtained from a lymph node of a person whose prostatic cancer had metastasized to the lymph node. LNCaP cells were grown in tissue culture using RPMI-1640 media with 10% fetal bovine serum. Wells of two 48-well tissue culture plates were seeded with 5000 LNCaP cells/well. […] Half the media was replaced with fresh media with treatments on the third day of the treatment period. By day 6 of treatment, wells of control untreated cells were approximately 60% confluent. The live cell numbers in each well at the end of treatment were assessed using the “CELLTITER BLUE”-brand assay kit (Promega Corp., Madison, Wis.). The assay is based on the ability of living cells to convert a redox dye (resazurin) into a fluorescent end product (resorufin). […] A similar study was performed using a second human-derived prostatic cancer cell line known as DU-145 (ATCC# HTB-81). […] Exp. Med. Biol. 1995 375:53-63). The DU-145 cells were propagated in Eagle's Minimum Essential Medium with 10% fetal bovine serum. The cells were treated in culture for just 4 days, with half the media replaced with fresh media on day 3 of treatment. Cells were 40% confluent at the end of treatment.

[3] = test system: β-glucuronidase activity, ileum lumen contents; experiment: β-glucuronidase cleavage in ileum lumen contents, free 1,25-D3 by RIA; assay type: in vitro ADME, rats; settings: 2100 pg added
Method: The proximal 25 cm of duodenum/jejunum, the caudal 12 cm of ileum, and the cranial 12 cm of colon were removed. The contents from the lumen of each section were flushed with 3 ml water, collected, and pooled. Three-ml aliquots of intestinal contents were placed into tubes. To the tubes, either 2100 pg (3.53 pmoles) β-gluc-1,25-D3 was added and incubated at 37° C. for 0, 1, 3, or 6 hrs, or 150 pg (0.36 pmoles) of 1,25-D3 was added and incubated for 0 or 6 hrs. […] Acetonitrile (3 ml) was added to each tube after incubation to end all enzymatic activity, after which the 1,25-D3 was extracted. Tritiated 1,25-D3 was added to each tube to assess extraction efficiency. The preparations were cleaned by HPLC, and the samples were analyzed for 1,25-D3 content by RIA (Heartland Assays, Ames, Iowa) (Hollis et al., J. Steroid Biochem. Mol. Biol. 2007 103(3-5):473-6).

[4] = Plasma calcium in the DSS mouse model of IBD; assay type: in vivo; settings: DSS mice
Excerpt: as §2

Cyp24 [5] = experiment: Cyp24 mRNA expression in duodenum of mice after a single oral dose; assay type: in vivo; settings: for Cyp24 expression in the duodenum, induction over control mice: 24 pmol per os
Method: as §1

[6] = Plasma 1,25-D3 concentration in mice after a single oral dose (RIA)

For `C=C1/C(=C\C=C2/CCC[C@]3(C)[C@@H]([C@H](C)CCCC(C)(C)O[C@@H]4O[C@H](C(=O)O)[C@@H](O)[C@H](O)[C@H]4O)CC[C@@H]23)C[C@@H](O)C[C@@H]1O` [β-gluc-1,25-D3, 25-β-glucuronide-1,25-dihydroxyvitamin D3], the “colon Cyp24 response relative to the equimolar dose of 1,25-D3” value (Cyp24 [1]; 12 pmol per os) was “about 20 times”, the “increase in Cyp24 expression in the colon” value (Cyp24 [1]; 12 pmol per os) was 60 fold and the “increase in Cyp24 in the colon over control mice” value (Cyp24 [1]; 24 pmol per os) was “about 700 fold”. The “increase in Cyp24 expression in the colon” value (Cyp24 [1]; 48 pmol per os) was over 400 fold, the “Histopathology score (0-12)” value ([2]; 14 ng/day) was 6.66 ± 0.53^c and the “Colon Length” value ([2]; 14 ng/day in diet) was 5.78 ± 0.09 cm. For the same compound, the “Final Body Weight” value ([2]; 14 ng/day in diet) was 21.91 ± 0.49 g, the “Fecal Blood Score” value ([2]; 14 ng/day) was 0.55 ± 0.26 and the “Histopathology score (0-12)” value ([2]; 70 ng/day) was 6.33 ± 0.74^c. The “Colon Length” value ([2]; 70 ng/day in diet) was 5.41 ± 0.15 cm, the “Final Body Weight” value ([2]; 70 ng/day in diet) was 21.00 ± 0.68 g and the “Fecal Blood Score” value ([2]; 70 ng/day) was 0.22 ± 0.08^c. For the same compound, the “Histopathology score (0-12)” value ([2]; 350 ng/day) was 8.33 ± 0.64, the “Colon Length” value ([2]; 350 ng/day in diet) was 4.72 ± 0.15 cm and the “Final Body Weight” value ([2]; 350 ng/day in diet) was 19.62 ± 0.69 g. The “Fecal Blood Score” value ([2]; 350 ng/day) was 0.88 ± 0.43, the “reducing inflammation” value ([2]; alone at 70 ng/day) was “numerically better than 1,25-D3” and the “Proliferation index (Mean ± SEM)” value (DU-145 cells; DU-145, 20 nM) was 90.3 ± 2.2. For the same compound, the “Proliferation index (Mean ± SEM)” value (DU-145 cells; DU-145, 100 nM) was 88.7 ± 2.8, the “reducing cell proliferation versus native hormone” value (DU-145 cells; DU-145 cells) was “as active as the native hormone” and the “Measured Free 1,25-dihydroxy vitamin D” value ([3]; 0 hrs incubation) was 39 pg. The “Measured Free 1,25-dihydroxy vitamin D” value ([3]; 1 hr incubation) was 1323 pg, the “Measured Free 1,25-dihydroxy vitamin D” value ([3]; 3 hrs incubation) was 1127 pg and the “Measured Free 1,25-dihydroxy vitamin D” value ([3]; 6 hrs incubation) was 1342 pg. For the same compound, the “Plasma Calcium” value ([4]; 14 ng/day in diet) was 10.25 ± 0.33 mg/dL, the “Plasma Calcium” value ([4]; 70 ng/day in diet) was 10.12 ± 0.30 mg/dL and the “Plasma Calcium” value ([4]; 350 ng/day in diet) was 10.72 ± 0.33^d mg/dl. The “hypercalcemia” value ([4]; alone at 70 ng/day) was “not accompanied by a physiologically significant increase in hypercalcemia”, the “Cyp24 expression in the duodenum, induction over control mice” value (Cyp24 [5]; 3 hours) was 1300 fold and the “Cyp24 expression in the duodenum, induction over control mice” value (Cyp24 [5]; 6 hours) was 500 fold. The “induction of Cyp24 in the duodenum versus analogous dose of 1,25-D3” value (Cyp24 [5]; 6, 12, 24, 48 pmol per os, 6 hrs) was “consistently less effective than the analogous dose of 1,25-D3”, the “plasma 1,25-D3 concentration” value ([6]; 6 pmol per os, 6 hr time point) was “not significantly increased” and the “peak plasma 1,25-D3, fold over control mouse plasma 1,25-D3” value ([6]; 24 pmol per os) was 3.5 fold. For the same compound, the “peak plasma concentration of 1,25-D3” value ([6]; 24 pmol per os) was 325 pg/mL, the “time of peak plasma 1,25-D3 concentration” value ([6]; 24 pmol per os) was “approximately 3 hr” and the “plasma 1,25-D3 concentration” value ([6]; 24 pmol per os, 24 hrs after treatment) was “slightly below the concentration observed in control animals”. For the same compound, the “levels of 1,25-D3 in the blood, 1,25-D3 versus β-gluc-1,25-D3” value ([6]; 6 hrs following treatment, each dose 6-48 pmol) was “comparable at each concentration”.
